A word on the IC50: it is the concentration that gives 50% inhibition.

Four molecules from BindingDB's records for doi:10.3109/14756366.2012.681651 (East China University of Science and Technology, 2013) can be followed below.

The structures appear in SMILES notation.

Sequence of Ribosomal protein S6 kinase alpha-3 (P51812 whole entry): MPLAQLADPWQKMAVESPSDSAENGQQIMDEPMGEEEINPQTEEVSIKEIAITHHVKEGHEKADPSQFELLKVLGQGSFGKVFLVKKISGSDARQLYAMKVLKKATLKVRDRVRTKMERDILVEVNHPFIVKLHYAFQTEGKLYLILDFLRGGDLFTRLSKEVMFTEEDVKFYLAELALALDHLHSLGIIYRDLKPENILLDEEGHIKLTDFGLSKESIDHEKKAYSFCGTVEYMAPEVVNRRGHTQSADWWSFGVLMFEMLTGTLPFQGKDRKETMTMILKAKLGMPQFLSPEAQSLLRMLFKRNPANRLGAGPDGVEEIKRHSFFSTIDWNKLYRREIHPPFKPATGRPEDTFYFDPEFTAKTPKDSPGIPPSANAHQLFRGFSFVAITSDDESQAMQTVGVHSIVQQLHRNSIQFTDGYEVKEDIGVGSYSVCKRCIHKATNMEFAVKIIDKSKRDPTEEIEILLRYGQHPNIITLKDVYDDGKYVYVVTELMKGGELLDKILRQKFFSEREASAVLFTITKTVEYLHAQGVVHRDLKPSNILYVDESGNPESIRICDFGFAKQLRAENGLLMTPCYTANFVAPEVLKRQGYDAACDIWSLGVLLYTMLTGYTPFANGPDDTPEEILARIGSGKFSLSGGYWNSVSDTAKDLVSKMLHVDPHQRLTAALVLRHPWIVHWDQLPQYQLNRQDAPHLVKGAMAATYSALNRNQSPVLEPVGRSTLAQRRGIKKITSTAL

This experiment has as its target Ribosomal protein S6 kinase alpha-3 (Homo sapiens, UniProt P51812). Kind of experiment: RSK2 Inhibition Assay. Conditions: pH 7.4; 25 °C. The method, then: The inhibition assays against RSK2 in vitro were determined by ADP Quest® (DiscoveRx) in 96-well flat-bottom plates according to the manufacturer's instructions [Lu et al., J. Med. Chem., 54:3564-3574]. The kinase (20 ng millipore) in 40 μL assay buffer (15 mM HEPES, pH 7.4, 20 mM NaCl, 1 mM EGTA, 0.02% Tween 20, 10 mM MgCl2, and 0.1 mg/mL BGG) containing 25 μM S6 peptide (AKRRRLSSLRA, Anaspec) was incubated for 20 min at room temperature with indicated concentrations of the compounds to be tested. Reactions were initiated by adding 10 μL of ATP to a final ATP concentration of 10 μM and terminated after 60 min at room temperature by adding 20 μL ADP Reagent A and 40 μL ADP Reagent B. Ro31-8220 was used as a positive control. Compounds dilutions were prepared from stock in DMSO and diluted with assay buffer for inhibition assay. The fluorescence signal detecting the amount of ADP produced as a result of enzyme activity was recorded on the Synergy™ 2 Multi-Mode Microplate Reader (BioTek) at an excitation wavelength of 530 nm and an emission wavelength of 590 nm at 30 min after the addition of the ADP Reagent B.
In the case of `O=C1NC(=S)NC(=O)C1=NNc1ccc(O)cc1` [5-(2-(4-Hydroxyphenyl)hydrazono)-dihydro-2-thioxopyrimidine-4,6(1H,5H)-dione (14)], the IC50 is 2.19 µM.

As for `O=C1NC(=S)NC(=O)C1=NNc1ccc(N2CCOCC2)cc1` [5-(2-(4-Morpholinophenyl)hydrazono-dihydro-2-thioxopyrimidine-4,6(1H,5H)-dione (15)], the IC50 stood at 9.23 µM.

As for `O=C1NC(=O)C(=NNc2ccc(N3CCOCC3)cc2)C(=O)N1` [5-(2-(4-Morpholinophenyl)hydrazono)pyrimidine-2,4,6(1H,3H,5H)-trione (13)], the IC50 came out at 5.11 µM. The value for `O=C1NC(=O)C(=NNc2ccc(O)cc2)C(=O)N1` [5-(2-(4-Hydroxyphenyl)hydrazono)pyrimidine-2,4,6(1H,3H,5H)-trione (9)] was 1.95 µM.
